Assay results taken from US20080319375A1, “Materials, Methods, and Systems for Cavitation-mediated Ultrasonic Drug Delivery in vivo” (Biovaluation & Analysis, Inc., priority 2007, published 2008).

Experiment: Micropipette aspiration of polymersome membranes
Format: physicochemical
Description: Thermal undulations of the quasi-spherical polymersome membranes provide an immediate indication of membrane softness. […] The micromanipulations are done with micropipette systems, as described above, and analogous to those described by Longo et al. (1997) and by Discher et al. (1994).
Analogous to a lipid bilayer, at low but increasing aspiration pressures, the thermally undulating polymersome membrane is progressively smoothed, increasing the projected area logarithmically with tension, t. From the slope of this increase (i.e., in tension units of mN/m) versus the fractional change, α, in vesicle area, the bending modulus, Kb, is calculated (see, e.g., Evans et al., 1990) with the following equation:
Kb≅kBT ln(t)/(8απ)+constant Equation 3 […]
Despite the comparative toughness of the polymersome membrane, a core “cavitation pressure,” Pc, may be readily estimated as pc=tc/d (5) yielding a value of pc=−25 atm. […] Bulk liquids such as water and light organics, are commonly reported to have measured tensile strengths of such a magnitude as may be generically estimated from a ratio of nominal interfacial tensions to molecular dimensions (i.e., ˜γ/d).

area expansion modulus, Ka: ~180 mN/m
Structure (SMILES): CCCCCCCC/C=C\CCCCCCCC(=O)O[C@H](COC(=O)CCCCCCCCCCCCCCCCC)COP(=O)([O-])OCC[N+](C)(C)C [SOPC, 1-stearoyl-2-oleoyl phosphatidylcholine]
